We go through three molecules from ChEMBL document CHEMBL4411318, “Discovery of a Series of 2'-α-Fluoro,2'-β-bromo-ribonucleosides and Their Phosphoramidate Prodrugs as Potent Pan-Genotypic Inhibitors of Hepatitis C Virus” (J Med Chem, 2019).

The subject of one series is HepG2. Nature of the series: Mitochondrial toxicity in human HepG2 cells assessed as lactic acid production at 50 uM followed by medium plus drugs replenishment every 3 to 4 days for 14 days relative to control. The format is cell-based. The following applies: hepg2, 336 h.
The nature of series [1]: Cytotoxicity against human PBMC assessed reduction in cell viability after 5 days by MTT assay. Format: cell-based. The conditions noted are these: PBMC. A general note: Formazan colour is commonly taken as a measure of viable cells.
A short description of series [2]: Cytotoxicity against human CCRF-CEM assessed reduction in cell viability after 4 days by MTT assay. The format is cell-based. The following applies: CCRF-CEM cells.
Series [3] deals with cytochrome c oxidase subunit 2 DNA level. The experiment in a line: Mitochondrial toxicity in human HepG2 cells assessed as inhibition of cytochrome c oxidase subunit 2 DNA level at 50 uM followed by medium plus drugs replenishment every 3 to 4 days for 14 days relative to control. Format: cell-based.
Series [4] deals with nuclear ribosomal-DNA level. The experiment in a line: Mitochondrial toxicity in human HepG2 cells assessed as inhibition of nuclear ribosomal-DNA level at 50 uM followed by medium plus drugs replenishment every 3 to 4 days for 14 days relative to control. Format: cell-based.
In series [5] the test system is cytochrome c oxidase subunit 2 DNA level. Nature of the series: Mitochondrial toxicity in human HepG2 cells assessed as inhibition of cytochrome c oxidase subunit 2 DNA level followed by medium plus drugs replenishment every 3 to 4 days for 14 days relative to control. Format: cell-based.
Series [6] can be described thus: Stability in Beagle dog plasma assessed as compound remaining at 2 uM up to 2 hrs by LC-MS/MS analysis. The format is ADME, cell-free, Canis lupus familiaris. The following applies: read-out: Stability.
Series [7] is described as follows: Stability in Sprague-Dawley rat plasma assessed as compound remaining at 2 uM after 2 hrs by LC-MS/MS analysis. Format: ADME, cell-free. The conditions noted are these: read-out: Stability.
The target of series [8] is RNA-directed RNA polymerase (Hepacivirus hominis) (UniProt O39930). The conditions noted are these: Hepatitis C virus subtype 1b.
RNA-directed RNA polymerase (Hepacivirus hominis), sequence (O39930 1-591): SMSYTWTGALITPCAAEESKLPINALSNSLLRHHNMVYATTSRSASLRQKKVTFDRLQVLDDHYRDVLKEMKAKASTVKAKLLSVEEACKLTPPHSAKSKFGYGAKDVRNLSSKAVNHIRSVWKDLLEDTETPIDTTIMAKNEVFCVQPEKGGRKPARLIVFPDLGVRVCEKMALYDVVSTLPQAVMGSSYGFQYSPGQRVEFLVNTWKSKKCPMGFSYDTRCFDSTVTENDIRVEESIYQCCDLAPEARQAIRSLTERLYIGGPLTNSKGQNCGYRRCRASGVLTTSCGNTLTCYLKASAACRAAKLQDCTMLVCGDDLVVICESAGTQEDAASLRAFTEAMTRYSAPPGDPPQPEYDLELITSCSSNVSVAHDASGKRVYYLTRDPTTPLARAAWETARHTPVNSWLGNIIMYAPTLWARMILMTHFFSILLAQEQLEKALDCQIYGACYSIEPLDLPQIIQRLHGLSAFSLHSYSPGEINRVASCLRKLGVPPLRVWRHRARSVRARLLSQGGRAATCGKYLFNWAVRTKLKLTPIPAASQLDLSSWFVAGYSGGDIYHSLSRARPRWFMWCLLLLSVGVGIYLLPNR
Description: Inhibition of NS5B polymerase in wild type HCV genotype 1b infected in human Huh7 replicon cells after 5 days by RT-PCR assay
For series [9], the system named is nuclear ribosomal-DNA level. The experiment in a line: in vitro. The following applies: human, HepG2 cells.
Another series relates to Huh-7. The experiment in a line: Cytotoxicity against human HuH7 cells assessed reduction in cell viability after 3 to 5 days by cellular ribosomal RNA amplification assay.
The nature of series [10]: Mitochondrial toxicity in human HepG2 cells assessed as reduction in cell viability after 14 days in presence of glucose supplemented media by ATP depletion assay. Format: cell-based.
Series [11] is described as follows: Mitochondrial toxicity in human HepG2 cells assessed as reduction in cell viability after 3 days in presence of galactose supplemented media by ATP depletion assay. The format is cell-based.
Series [12] in a line: Mitochondrial toxicity in human HepG2 cells assessed as reduction in cell viability after 3 days in presence of glucose supplemented media by ATP depletion assay. Format: cell-based.
For series [13], the target named is RNA-directed RNA polymerase (Hepacivirus hominis) (UniProt O39930). Nature of the series: Inhibition of NS5B polymerase in HCV genotype 1b/4a chimeric replicon infected in human HuH7 replicon cells after 5 days by RT-PCR analysis. Format: cell-based.
For series [14] the target is unchanged. The experiment in a line: Inhibition of NS5B polymerase in HCV genotype 2a infected in human HuH7 replicon cells after 5 days by RT-PCR analysis. The format is cell-based. The following applies: Hepatitis C virus subtype 2a.
Series [15] can be described thus: Cytotoxicity against human HuH7 cells assessed reduction in cell viability after 3 to 5 days by MTT assay. The format is cell-based, Huh-7.
Series [16] addresses RNA-directed RNA polymerase (Hepacivirus hominis) (UniProt O39930). The experiment in a line: Inhibition of NS5B polymerase in HCV genotype 1b/5a chimeric replicon infected in human HuH7 replicon cells after 5 days by RT-PCR analysis. The format is cell-based. (Replicon systems follow genome replication, usually without infectious particles.)
Series [17] can be described thus: Drug metabolism in human HuH7 cells assessed as Tmax for NTP formation at 10 uM after 2 to 48 hrs by LC-MS/MS analysis. The format is ADME, cell-based. The conditions noted are these: huh-7, 10 µM.
The test system of series [18] is Bone marrow cell. The experiment in a line: Cytotoxicity against human bone marrow cells assessed as inhibition of burst forming unit-erythroid after 14 days by FACS analysis. The conditions noted are these: 336 h. Format: cell-based. On the technique in general: A flow cytometer gives signals particle by particle.
For series [19], the system named is Bone marrow cell. Nature of the series: Cytotoxicity against human bone marrow cells assessed as inhibition of colony-forming unit-granulocyte after 14 days by FACS analysis. Format: cell-based. The conditions noted are these: 336 h.
Series [20] can be described thus: Cardiotoxicity against human embryonic stem cell-induced ventricular cardiomyocytes administered on day 7 and measured on day 10 after 30 mins incubation by CellTiter Glo assay. Format: toxicity, cell-based, Cardiac muscle cell.
Series [21] in a line: Half life in human intestinal microsomes by LC/MS/MS analysis. The format is ADME, Intestine, Microsome.
Series [22] is described as follows: Stability in human plasma assessed as compound remaining at 2 uM after 120 mins by LC/MS/MS analysis. The following applies: read-out: Stability. The format is ADME, cell-free.
Series [23] in a line: Stability in simulated intestinal fluid after 24 hrs by LC/MS/MS analysis. The format is ADME. The conditions noted are these: simulated gi fluid.
For series [24], the target named is RNA-directed RNA polymerase (Hepacivirus hominis) (UniProt O39930). The conditions noted are these: genotype 1b/3a.
Description: Inhibition of NS5B polymerase in HCV genotype 1b/3a chimeric replicon infected in human HuH7 replicon cells after 5 days by RT-PCR analysis
Series [25] in a line: in vitro. The following applies: human, liver microsomes.
Description: Half life in human liver microsomes in presence of NADPH regenerating system by LC/MS/MS analysis
A short description of series [26]: in vitro. The following applies: human, liver microsomes. The source holds these as a separate data set.
Description: Intrinsic clearance in human liver microsomes in presence of NADPH regenerating system by LC/MS/MS analysis
The nature of series [27]: in vitro. The following applies: human, liver microsomes. This is another data set of the same source.
Description: Stability in human liver microsomes assessed as compound remaining in absence of NADPH regenerating system after 60 mins by LC/MS/MS analysis
Series [28] is described as follows: in vitro. The conditions noted are these: human, liver microsomes. The source holds these as a separate data set.
Description: Intrinsic clearance in human liver measured from intrinsic clearance in human liver microsomes in presence of NADPH regenerating system by LC/MS/MS analysis
Series [29] is described as follows: Drug uptake in Beagle dog liver at 10 mg/kg, po measured up to 4 hrs by LC-MS/MS analysis. The conditions noted are these: in vivo, BLD = below limit of detection.
A short description of series [30]: Drug metabolism in Beagle dog liver assessed as formation of triphosphate form parent nucleoside at 10 mg/kg, po measured up to 4 hrs by LC-MS/MS analysis. The following applies: in vivo.
The target of series [31] is DNA-directed RNA polymerase, mitochondrial (Homo sapiens, UniProt O00411). The experiment in a line: Substrate activity at human POLRMT assessed as 5-radiolabled RNA/DNA incorporation levels at 100 uM after 2 hrs by PAGE analysis. Format: ADME.
DNA-directed RNA polymerase, mitochondrial, sequence (O00411 whole entry): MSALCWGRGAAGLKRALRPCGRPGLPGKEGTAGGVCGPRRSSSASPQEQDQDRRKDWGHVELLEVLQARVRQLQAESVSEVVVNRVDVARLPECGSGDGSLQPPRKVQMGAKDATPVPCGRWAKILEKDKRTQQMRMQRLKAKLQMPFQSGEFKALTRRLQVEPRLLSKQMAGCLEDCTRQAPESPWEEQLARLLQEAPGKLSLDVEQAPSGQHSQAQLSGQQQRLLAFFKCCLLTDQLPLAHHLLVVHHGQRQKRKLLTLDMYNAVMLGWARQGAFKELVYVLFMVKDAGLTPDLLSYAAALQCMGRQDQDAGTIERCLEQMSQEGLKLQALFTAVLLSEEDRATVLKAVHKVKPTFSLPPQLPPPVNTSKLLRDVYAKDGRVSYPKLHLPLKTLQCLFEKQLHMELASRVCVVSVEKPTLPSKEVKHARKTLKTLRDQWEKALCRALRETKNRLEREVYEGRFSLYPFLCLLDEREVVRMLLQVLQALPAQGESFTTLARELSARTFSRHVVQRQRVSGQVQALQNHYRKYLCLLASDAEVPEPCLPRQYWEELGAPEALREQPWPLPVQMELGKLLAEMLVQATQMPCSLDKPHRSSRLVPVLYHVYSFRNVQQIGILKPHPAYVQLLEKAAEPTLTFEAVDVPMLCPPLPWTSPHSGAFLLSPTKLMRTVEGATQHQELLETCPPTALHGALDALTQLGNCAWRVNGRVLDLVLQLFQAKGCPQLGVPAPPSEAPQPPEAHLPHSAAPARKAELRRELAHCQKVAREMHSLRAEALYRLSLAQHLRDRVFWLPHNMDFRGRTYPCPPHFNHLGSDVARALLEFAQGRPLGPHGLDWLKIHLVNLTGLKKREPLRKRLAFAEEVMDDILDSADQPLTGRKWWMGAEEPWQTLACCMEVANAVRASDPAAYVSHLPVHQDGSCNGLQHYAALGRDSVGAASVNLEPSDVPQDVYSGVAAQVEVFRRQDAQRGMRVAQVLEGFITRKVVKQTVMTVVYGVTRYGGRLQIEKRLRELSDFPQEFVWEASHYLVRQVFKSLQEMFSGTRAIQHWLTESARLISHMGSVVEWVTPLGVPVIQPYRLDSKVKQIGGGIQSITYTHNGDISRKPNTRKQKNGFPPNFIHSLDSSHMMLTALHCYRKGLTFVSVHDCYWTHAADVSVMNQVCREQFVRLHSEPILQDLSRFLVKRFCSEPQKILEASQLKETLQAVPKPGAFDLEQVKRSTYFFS
The target in series [32] is T1, DNA polymerase alpha catalytic subunit (Homo sapiens, UniProt P09884).
T1 sequence (P09884 whole entry): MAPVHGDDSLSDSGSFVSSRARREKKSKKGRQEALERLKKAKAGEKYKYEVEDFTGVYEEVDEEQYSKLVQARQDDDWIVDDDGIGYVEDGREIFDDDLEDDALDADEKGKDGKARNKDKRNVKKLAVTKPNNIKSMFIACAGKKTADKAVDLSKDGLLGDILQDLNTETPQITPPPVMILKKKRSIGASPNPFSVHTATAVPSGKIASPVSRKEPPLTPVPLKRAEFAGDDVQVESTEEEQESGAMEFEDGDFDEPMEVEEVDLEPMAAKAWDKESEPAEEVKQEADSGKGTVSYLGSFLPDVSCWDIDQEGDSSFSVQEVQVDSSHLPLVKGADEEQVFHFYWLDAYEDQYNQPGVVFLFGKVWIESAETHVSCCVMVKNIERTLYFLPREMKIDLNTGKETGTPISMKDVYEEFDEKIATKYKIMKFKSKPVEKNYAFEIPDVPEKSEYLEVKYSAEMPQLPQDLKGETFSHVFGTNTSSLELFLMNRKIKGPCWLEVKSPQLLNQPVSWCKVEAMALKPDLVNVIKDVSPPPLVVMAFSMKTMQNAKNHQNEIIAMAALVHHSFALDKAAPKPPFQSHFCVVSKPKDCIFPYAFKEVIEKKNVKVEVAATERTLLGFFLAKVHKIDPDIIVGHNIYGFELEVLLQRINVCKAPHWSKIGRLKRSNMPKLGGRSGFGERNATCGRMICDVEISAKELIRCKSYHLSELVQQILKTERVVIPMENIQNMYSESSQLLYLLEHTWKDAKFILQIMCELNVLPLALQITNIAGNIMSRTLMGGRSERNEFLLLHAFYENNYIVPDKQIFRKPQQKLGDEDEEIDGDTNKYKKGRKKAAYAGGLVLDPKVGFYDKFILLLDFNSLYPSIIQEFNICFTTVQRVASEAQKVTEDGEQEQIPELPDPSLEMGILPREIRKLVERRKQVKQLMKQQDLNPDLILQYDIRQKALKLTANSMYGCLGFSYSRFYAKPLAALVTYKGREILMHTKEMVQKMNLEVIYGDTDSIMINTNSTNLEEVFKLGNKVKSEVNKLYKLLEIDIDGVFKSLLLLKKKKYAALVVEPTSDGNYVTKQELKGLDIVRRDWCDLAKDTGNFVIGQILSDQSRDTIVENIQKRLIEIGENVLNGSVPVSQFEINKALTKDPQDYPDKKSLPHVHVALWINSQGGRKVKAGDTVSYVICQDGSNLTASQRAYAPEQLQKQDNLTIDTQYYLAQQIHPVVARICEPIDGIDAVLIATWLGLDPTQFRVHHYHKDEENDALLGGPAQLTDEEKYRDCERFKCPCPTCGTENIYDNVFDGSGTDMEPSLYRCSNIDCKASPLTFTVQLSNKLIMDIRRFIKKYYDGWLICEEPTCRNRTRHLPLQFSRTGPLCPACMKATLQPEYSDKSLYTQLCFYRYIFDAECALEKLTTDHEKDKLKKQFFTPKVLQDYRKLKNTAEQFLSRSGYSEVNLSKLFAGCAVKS
The experiment in a line: Inhibition of human DNA polymerase alpha using 5-end radiolabeled 24nt to 48nt DNA as primer template after 5 mins in presence of dCTP/dGTP/dTTP/dATP by PAGE analysis.

The target of the next series is DNA polymerase beta (Homo sapiens, UniProt P06746). Nature of the series: Inhibition of human DNA polymerase beta using 5-end radiolabeled 24nt to 48nt DNA as primer template after 5 mins in presence of dCTP/dGTP/dTTP/dATP by PAGE analysis.
Series [33] can be described thus: Inhibition of human DNA polymerase gamma using 5-end radiolabeled 24nt to 48nt DNA as primer template after 120 mins in presence of dCTP/dGTP/dTTP/dATP by PAGE analysis.

SMILES strings stand for the structures.

The term CC50 denotes the concentration at which the toxic effect on the cells reaches its halfway point. Read a low CC50 as greater toxicity to the cells. What is called inhibition is the percentage by which the read-out fell short of the control. One may read the IC50 as the midpoint of a concentration-inhibition curve. Broadly, the EC90 is the concentration needed for an effect of 90%. A higher EC90 goes with a need for much substance. `CC(C)OC(=O)[C@H](C)NP(=O)(OC[C@H]1O[C@@H](n2ccc(=O)[nH]c2=O)[C@](F)(Br)[C@H]1O)Oc1ccccc1` (mixture of isomers): the Activity in the series with HepG2 was determined as 140%. This molecule also registered a CC50 at 120 h in [1] of over 100 µM. Also, the CC50 at 96 h in series [2] was over 100 µM. Further, the inhibition at 336 h, 50 µM in series [3] was found to be 39%; in series [4] it was 40%. The IC50 at 14 days in series [5] and in series [9] was over 50 µM in each case. Further, the remaining at 2 h, 2 µM in series [6] stood at 100%; in [7], 0.2%. This molecule returned an EC90 in series [8] of 0.9 µM. The same molecule gave a CC50 in the series on Huh-7 of over 10 µM.

As a reminder, the Tmax is the time from dosing to the highest level. One may read the half-life as the time in which the quantity being followed falls by half. Lower therefore signals fast loss. The microsomal CLint is a measure of how fast metabolising enzymes remove a compound, apart from limits set by blood flow. High values mean faster metabolism, low ones greater metabolic stability. A word on the CLint scaled: it is a measure of how fast metabolising enzymes remove a compound, apart from limits set by blood flow. Low readings indicate greater metabolic stability, high ones faster metabolism. With `CC(C)OC(=O)[C@H](C)N[P@@](=O)(OC[C@H]1O[C@@H](n2ccc(=O)[nH]c2=O)C(F)(Br)C1O)Oc1ccccc1` (single isomer, unassigned), the IC50 at 14 days in series [10] is over 100 µM; in series [5], over 50 µM; in series [9], over 50 µM. In addition, the IC50 at 3 days in [11], in series [12] and in [20] was over 100 µM each time. Moreover, in the series with HepG2, the Activity turned out to be 100%. For the same molecule, the EC90 in series [13] is 0.87 µM; in [14], 0.83 µM; in [16], 0.8 µM; in series [24], 1.6 µM; in [8], 0.53 to 2.4 µM. The same molecule returned a CC50 in series [15] of over 10 µM. Besides, the CC50 at 120 h in series [1] is over 100 µM. The molecule further registered a CC50 at 96 h in series [2] of over 100 µM. The Tmax in series [17] is 24 h. In addition, the values for the inhibition at 336 h, 50 µM in [3] and in series [4] were 31% and under 1%, respectively. For the same molecule, the IC50 in the series with Bone marrow cell [18] and in the series on Bone marrow cell [19] was over 100 µM each time. The values for the half-life (in series [21]; in the series “in vitro [25]”) were 2.2 h and 0.307 h, respectively. For the same molecule, the remaining at 2 h, 2 µM in [22] was found to be 72%. Moreover, in series [23], the Stability entry was “Stable”. Besides, in “in vitro [26]”, the microsomal CLint stood at 75.3 µL/min/mg. The molecule also yielded a remaining at 1 h in the series “in vitro [27]” of 26.6%. In addition, in the series “in vitro [28]”, the CLint scaled amounted to 67.8 mL/min/kg. Also, in series [29], the Drug uptake entry was “Bld”. The Drug metabolism result in [30] was “Metabolite_Notdetected”.

Consider `C[C@@]1(F)[C@H](O)[C@@H](COP(=O)(O)OP(=O)(O)OP(=O)(O)O)O[C@H]1n1ccc(=O)[nH]c1=O` [GS-461203], for which the Activity in series [31] is 3.1%. Besides, the IC50 (in series [32]; on DNA polymerase beta; in [33]) was over 100 µM throughout.
